Here are results for nine molecules from publication PMC8413904 (Pharmacology Research & Perspectives, 2021).

Experiment [1] has as its system cultured rat brain cortical neurons. Description: Dynamic calcium assay (Fluo‐8). It counts as cell-based. As for the experimental part: (§1) All animal experimental procedures and housing have been approved by the Institutional Animal Care and Use Committee (IACUC) protocol #18‐015 of Virginia Tech. Embryonic day 18 (E18) rat brain tissue samples were obtained from adult pregnant SD rats. Rat brain primary cortical, striatal, and cerebellar neurons were cultured on poly‐d‐lysine coated 96‐well plates for 14 days in vitro (DIV14) before using for the experiments. Primary rat neuron culture was performed as previously published.[44] Briefly, each well of a 96 well plate was loaded with 50 000 cells and grown in 200 µl neurobasal media supplemented with B27, glutamax, penicillin, streptomycin. One hundred microliters of media was replaced with fresh media once in 4 days. Eight to thirteen fetus were obtained from each pregnant rat. Brain tissue from these fetus were pooled to obtain the neurons. Cortical, striatal, and cerebellar neuron assays were carried out at different time points.
Dynamic calcium assay was carried out, using Fluo‐8 no‐wash kit (abcam, ab112129), as per the manufacturer's instructions with minor modifications to fit with experimental necessities. On DIV14, all 200 μl of media was removed and replaced it with 100 μl of HBSS and 100 μl of Fluo‐8 dye loading solution. The plates were incubated at 37°C for 30 min and at room temperature for 30 min. […] Costar 96‐well clear bottom black side plates were read from the bottom, nine times, with 60 s intervals between each read. Temperature was set at 37°C and reading speed was 100 ms.

In experiment [2] the target is T1, GluN1/2A (UniProt P35439+Q12879). Details: method as in PMID 30553788. The settings on record: at −60 mV; read-out: Mg^2+ IC50; cited from earlier work.
T1 sequence (Q12879 23-1464, other chains not shown): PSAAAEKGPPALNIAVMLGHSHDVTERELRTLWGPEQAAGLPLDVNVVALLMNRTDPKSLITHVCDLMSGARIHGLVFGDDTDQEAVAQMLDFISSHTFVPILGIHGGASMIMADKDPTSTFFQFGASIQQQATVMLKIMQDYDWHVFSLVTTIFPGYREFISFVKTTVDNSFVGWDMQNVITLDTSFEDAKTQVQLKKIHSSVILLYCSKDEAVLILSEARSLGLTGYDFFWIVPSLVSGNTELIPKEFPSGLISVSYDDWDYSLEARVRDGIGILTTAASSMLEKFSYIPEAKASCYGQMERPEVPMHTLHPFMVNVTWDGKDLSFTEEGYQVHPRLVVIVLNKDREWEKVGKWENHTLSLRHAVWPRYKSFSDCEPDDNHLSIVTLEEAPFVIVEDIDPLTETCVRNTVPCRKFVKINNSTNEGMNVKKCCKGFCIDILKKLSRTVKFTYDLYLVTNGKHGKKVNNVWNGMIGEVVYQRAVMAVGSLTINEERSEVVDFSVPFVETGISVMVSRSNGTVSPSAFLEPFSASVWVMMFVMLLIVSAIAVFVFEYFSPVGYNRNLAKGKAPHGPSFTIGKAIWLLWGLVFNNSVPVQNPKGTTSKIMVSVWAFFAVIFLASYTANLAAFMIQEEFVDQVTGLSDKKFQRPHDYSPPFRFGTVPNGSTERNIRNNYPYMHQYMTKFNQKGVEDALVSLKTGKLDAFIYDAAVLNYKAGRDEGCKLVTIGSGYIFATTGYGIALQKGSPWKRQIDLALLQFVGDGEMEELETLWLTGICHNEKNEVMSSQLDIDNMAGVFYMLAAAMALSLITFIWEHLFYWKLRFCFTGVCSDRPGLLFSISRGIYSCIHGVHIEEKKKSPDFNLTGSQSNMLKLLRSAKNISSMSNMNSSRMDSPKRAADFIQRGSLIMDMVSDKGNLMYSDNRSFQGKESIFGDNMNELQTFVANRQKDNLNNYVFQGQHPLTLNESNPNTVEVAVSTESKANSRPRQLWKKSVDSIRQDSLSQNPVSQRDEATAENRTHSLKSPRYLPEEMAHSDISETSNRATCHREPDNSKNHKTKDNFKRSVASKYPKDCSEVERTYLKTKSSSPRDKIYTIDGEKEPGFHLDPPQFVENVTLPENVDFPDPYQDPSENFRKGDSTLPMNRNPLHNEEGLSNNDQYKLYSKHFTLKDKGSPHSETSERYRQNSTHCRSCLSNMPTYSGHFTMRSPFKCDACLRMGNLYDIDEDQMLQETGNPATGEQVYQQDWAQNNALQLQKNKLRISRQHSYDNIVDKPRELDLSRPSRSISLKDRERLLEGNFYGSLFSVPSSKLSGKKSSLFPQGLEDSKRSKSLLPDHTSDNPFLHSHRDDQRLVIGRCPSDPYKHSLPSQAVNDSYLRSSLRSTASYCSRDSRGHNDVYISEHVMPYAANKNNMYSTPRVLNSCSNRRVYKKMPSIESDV
The subject of experiment [3] is cultured rat brain cerebellar neurons. Description: Dynamic calcium assay (Fluo‐8). Conditions: 300 µM NMDA alone. It counts as cell-based. As for the experimental part:
as §1
(§2) Dynamic calcium assay was carried out, using Fluo‐8 no‐wash kit (abcam, ab112129), as per the manufacturer's instructions with minor modifications to fit with experimental necessities. On DIV14, all 200 μl of media was removed and replaced it with 100 μl of HBSS and 100 μl of Fluo‐8 dye loading solution. The plates were incubated at 37°C for 30 min and at room temperature for 30 min. A volume of 100 µL of test chemicals (3× of desired final concentration) was added to the plates immediately before running the calcium flux assay and read the fluorescence intensity at 490/525 nm (ex/em) using Synergy microplate reader, BioTek, VT. Costar 96‐well clear bottom black side plates were read from the bottom, nine times, with 60 s intervals between each read. Temperature was set at 37°C and reading speed was 100 ms.

In experiment [4] the test system is cultured rat brain striatal neurons. In words: Dynamic calcium assay (Fluo‐8). It counts as cell-based. The settings on record: 300 µM NMDA alone. How it is done:
as §1, §2

Experiment [5] deals with cultured rat brain cerebellar neurons. Description: Na^+ assay (CoroNa green‐AM). It counts as cell-based. The settings on record: 300 µM NMDA alone. As for the experimental part:
as §1
(§3) For Na^+ assay, DIV14 neurons were washed with HBSS and treated with freshly prepared CoroNa green‐AM dye (ThermoFisher, cat # C36676) and incubated for 45 min in 37°C. Plates were washed twice with HBSS before adding drug solutions dissolved in HBSS, and read at 492/516 nm (ex/em) using a plate reader. RFU values of background control and treatments were plotted to identify the effect of CNS4 on NMDA‐induced Na^+ flux in the neurons.

The subject of experiment [6] is cultured rat brain striatal neurons. In words: Na^+ assay (CoroNa green‐AM). It counts as cell-based. Conditions: 300 µM NMDA alone. As for the experimental part:
as §1, §3

The test system of experiment [7] is cultured rat brain cortical neurons. Description: Na^+ assay (CoroNa green‐AM). Format: cell-based. How it is done:
as §1
For Na^+ assay, DIV14 neurons were washed with HBSS and treated with freshly prepared CoroNa green‐AM dye (ThermoFisher, cat # C36676) and incubated for 45 min in 37°C. […] RFU values of background control and treatments were plotted to identify the effect of CNS4 on NMDA‐induced Na^+ flux in the neurons.

The next experiment has as its target GluN1/2D (UniProt O15399+P35439). In words: TEVC electrophysiology dose–response in xenopus oocytes. It counts as cell-based. Set-up: host or cells: Xenopus oocytes (cRNA injection).
The target in experiment [8] is T1, GluN1/2A. Described as above. Format: cell-based.
Source text: (§4) NMDAR constructs: cDNA encoding the NMDAR1a subunit (GluN1a) was obtained from Dr. Nakanishi. cDNA encoding the GluN2B (pci_sepGluN2B) was developed initially in the Malinow lab[36] and purchased from Addgene (cat# 23998). cDNA encoding the GluN2C and GluN2D were purchased from GenScript. Mutated GluN1, 2A and 2B cDNA constructs capable of assembling as GluN1/2A/2B triheteromeric (1/2AB) receptors[37] were obtained from Dr. Paoletti (Laboratoire de Neurobiologie, CNRS). […] Plasmids were linearized with NotI (GluN1a) or Avrll (GluN2B), or BstB1 (GluN2C and GluN2D) and transcribed in vitro with T7 (GluN1a, GluN1/2A, GluN2B, GluN2C, & GluN2D) RNA polymerase using the mMessage mMachine transcription kits (Invitrogen by Thermo Fisher Scientific).
(§5) Stage IV frog oocytes were obtained from Xenopus‐I. NMDAR subunit cRNAs were suspended in nuclease‐free sterile water. GluN1A, GluN2B, GluN2C, GluN2D, and GluN1/2A/2B cRNAs were mixed in a ratio of 1:1–3. 50 nl of the final cRNA mixture was microinjected (40–70 ng total) into the oocyte cytoplasm. Oocytes were incubated in ND‐96 solution at 18^◦C prior to electrophysiological recordings (1–3 days).
Electrophysiological responses were measured using a standard two‐microelectrode voltage‐clamp workstation [Warner Instruments (Hamden, Connecticut) model OC‐725C] designed to provide a fast clamp of large cells. The recording buffer contained 116 mM NaCl, 2 mM KCl, 0.3 mM BaCl2, and 5 mM HEPES, pH 7.4. Response magnitude was determined in xenopus oocytes expressing different NMDAR subunits (GluN1/2A, 1/2B, 1/2C, 1/2D, and 1/2A/2B) by the steady plateau response elicited by bath application of different agonist concentrations. […] Response amplitudes for functional NMDARs were generally between 0.1 and 2 μA. […] Dose–response relationships were fit to an appropriate curve‐fitting equation using GraphPad Prism‐7. Nonlinear regression was used to calculate EC50 and/or percentage maximal response. Curve fittings were done using the following equations as performed in the previous studies[34], [39]: Y = 100/(1 + 10^(LogEC50‐X)) or Y = Bottom + (Top − Bottom)/(1+10^(LogEC50‐X)). Statistical significance was determined at the overall alpha level .05, using appropriate statistical methods as described in each figure captions.

Where two headings read alike, the source gives them in different places.

The term IC50 denotes the concentration that gives 50% inhibition. By EC50 is commonly meant the concentration at which the effect is half-maximal.

Chain of GluN1/2D (O15399 28-1336, other chains not shown): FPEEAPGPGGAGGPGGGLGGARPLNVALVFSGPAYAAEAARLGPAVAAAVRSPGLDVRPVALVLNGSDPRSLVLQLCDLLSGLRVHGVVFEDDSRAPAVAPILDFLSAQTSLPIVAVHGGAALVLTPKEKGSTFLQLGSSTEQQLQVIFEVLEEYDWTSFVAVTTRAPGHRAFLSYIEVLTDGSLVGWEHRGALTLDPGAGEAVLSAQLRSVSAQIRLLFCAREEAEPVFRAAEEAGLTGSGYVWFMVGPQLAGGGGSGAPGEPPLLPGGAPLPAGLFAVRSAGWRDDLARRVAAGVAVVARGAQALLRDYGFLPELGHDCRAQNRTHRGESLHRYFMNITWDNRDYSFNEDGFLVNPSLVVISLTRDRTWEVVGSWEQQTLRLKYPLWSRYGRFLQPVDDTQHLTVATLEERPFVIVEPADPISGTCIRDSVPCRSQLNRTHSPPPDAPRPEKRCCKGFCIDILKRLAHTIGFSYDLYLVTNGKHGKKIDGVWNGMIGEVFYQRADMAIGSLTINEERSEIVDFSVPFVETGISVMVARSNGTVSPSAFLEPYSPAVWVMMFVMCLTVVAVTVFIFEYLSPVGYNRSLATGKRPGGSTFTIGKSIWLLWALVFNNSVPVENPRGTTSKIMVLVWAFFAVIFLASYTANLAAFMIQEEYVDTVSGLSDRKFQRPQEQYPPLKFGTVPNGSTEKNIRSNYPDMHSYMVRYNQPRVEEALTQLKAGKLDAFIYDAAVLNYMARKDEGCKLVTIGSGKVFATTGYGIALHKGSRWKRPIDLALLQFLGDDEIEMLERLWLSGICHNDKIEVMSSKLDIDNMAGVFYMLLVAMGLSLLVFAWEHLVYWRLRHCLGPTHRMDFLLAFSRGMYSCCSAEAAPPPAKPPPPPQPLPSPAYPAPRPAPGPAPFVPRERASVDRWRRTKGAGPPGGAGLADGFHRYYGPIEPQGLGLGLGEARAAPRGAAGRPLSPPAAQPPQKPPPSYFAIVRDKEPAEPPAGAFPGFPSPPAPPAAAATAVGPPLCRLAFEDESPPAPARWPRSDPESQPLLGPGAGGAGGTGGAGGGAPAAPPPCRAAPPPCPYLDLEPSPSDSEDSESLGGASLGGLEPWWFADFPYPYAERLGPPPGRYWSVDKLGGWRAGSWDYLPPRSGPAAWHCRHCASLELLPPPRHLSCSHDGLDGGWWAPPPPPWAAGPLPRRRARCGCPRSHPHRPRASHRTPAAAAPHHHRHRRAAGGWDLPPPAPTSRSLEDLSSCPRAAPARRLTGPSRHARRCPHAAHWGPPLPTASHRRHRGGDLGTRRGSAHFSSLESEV
Source text for GluN1/2D: as §4, §5
Electrophysiological responses were measured using a standard two‐microelectrode voltage‐clamp workstation [Warner Instruments (Hamden, Connecticut) model OC‐725C] designed to provide a fast clamp of large cells. The recording buffer contained 116 mM NaCl, 2 mM KCl, 0.3 mM BaCl2, and 5 mM HEPES, pH 7.4. Response magnitude was determined in xenopus oocytes expressing different NMDAR subunits (GluN1/2A, 1/2B, 1/2C, 1/2D, and 1/2A/2B) by the steady plateau response elicited by bath application of different agonist concentrations. […] Response amplitudes for functional NMDARs were generally between 0.1 and 2 μA. […] Dose–response relationships were fit to an appropriate curve‐fitting equation using GraphPad Prism‐7. Nonlinear regression was used to calculate EC50 and/or percentage maximal response. […] Statistical significance was determined at the overall alpha level .05, using appropriate statistical methods as described in each figure captions.

Regarding `NCCCC(=O)O` [GABA, reference compound], the “Ca^2+ signal, mean rfu” value in experiment [1] (100 µM GABA, baseline 7673, p < .0001) came out at 4196 rfu.
For the molecule `C[N+](C)(C)CCCCCC[N+](C)(C)C` [Hexamethonium, reference compound], the “Ca^2+ signal, mean rfu” value in [1] (50 µM hexamethonium + 100 µM acetylcholine, p > .9999 vs acetylcholine (6222)) amounted to 6228 rfu.
In the case of `[Cl-].[Cl-].[Mg+2]` [MgCl2], the IC50 at GluN1/2A [2] was 40 µM.
For `CN[C@H](CC(=O)O)C(=O)O` [NMDA, N‐methyl D‐aspartate, reference compound], the “Ca^2+ signal, mean rfu” value in [1] (300 µM NMDA alone) was found to be 26711 rfu; in experiment [4], 20964 rfu. Also, the “Ca^2+ signal, rfu” value in [3] came out at 12810 rfu. For the same molecule, the “Na^+ signal compared to the background control” value in experiment [5] and in experiment [6] was “did not significantly increase” throughout.
Take `CC(=O)OCC[N+](C)(C)C` [acetylcholine, reference compound]: the “Ca^2+ signal, mean rfu” value in experiment [1] (100 µM acetylcholine, baseline 7673, p < .0001) is 6222 rfu.
As for `N[C@@H](CCC(=O)O)C(=O)O` [glutamate, L‐glutamic acid, reference compound], the “Ca^2+ signal, mean rfu” value in experiment [1] (100 µM glutamate, Figure 8A, baseline 7673) stood at 21956 rfu. Further, the “Na^+ signal, mean rfu” value in experiment [7] (100 µM glutamate, Figure 8B, baseline vs glutamate 514004 vs. 505677, p = .4055) came out at 505677 rfu. On GluN1/2D, the EC50 amounted to 0.34 ± 0.01 µM.
In turn, `CC(C(O)c1ccc(O)cc1)N1CCC(Cc2ccccc2)CC1` (stereo not shown) [ifenprodil, reference compound] gave an IC50 on GluN1/2A [8] of 202 ± 25.1 µM.
For `CC12CC3CC(C)(C1)CC(N)(C3)C2` [memantine, reference compound], in [1] (50 µM memantine added to NMDA, Figure 6), the “effect on NMDA‐induced Ca^2+ signal” value is recorded as “reversed the NMDA‐induced Ca^2+ signal back to the control level”. The “Na^+ signal, mean rfu” value in [7] (NMDA plus 50 µM memantine, p < .01 vs NMDA alone (400251)) is reported as 412868 rfu.
For picrotoxin [reference compound], the “effect on GABA mediated reduction of baseline Ca^2+ response” value in experiment [1] (50 µM picrotoxin + 100 µM GABA) was “unaltered”.
